{"source": "patent US20050209278A1", "about": "“Piperidinyl- and piperazinyl-sulfonylmethyl hydroxamic acids and their use as protease inhibitors” (priority 2002, published 2005)", "note": "Structures can show the parent of a compound that is named as a salt.", "data": [{"target": "T1, MMP-9 (Homo sapiens, UniProt P14780)", "T1 construct": "made in house; host or cells: MMP-9-transfected HT1080 cells (spent media)", "T1 sequence (P14780 107-707 limits assumed)": "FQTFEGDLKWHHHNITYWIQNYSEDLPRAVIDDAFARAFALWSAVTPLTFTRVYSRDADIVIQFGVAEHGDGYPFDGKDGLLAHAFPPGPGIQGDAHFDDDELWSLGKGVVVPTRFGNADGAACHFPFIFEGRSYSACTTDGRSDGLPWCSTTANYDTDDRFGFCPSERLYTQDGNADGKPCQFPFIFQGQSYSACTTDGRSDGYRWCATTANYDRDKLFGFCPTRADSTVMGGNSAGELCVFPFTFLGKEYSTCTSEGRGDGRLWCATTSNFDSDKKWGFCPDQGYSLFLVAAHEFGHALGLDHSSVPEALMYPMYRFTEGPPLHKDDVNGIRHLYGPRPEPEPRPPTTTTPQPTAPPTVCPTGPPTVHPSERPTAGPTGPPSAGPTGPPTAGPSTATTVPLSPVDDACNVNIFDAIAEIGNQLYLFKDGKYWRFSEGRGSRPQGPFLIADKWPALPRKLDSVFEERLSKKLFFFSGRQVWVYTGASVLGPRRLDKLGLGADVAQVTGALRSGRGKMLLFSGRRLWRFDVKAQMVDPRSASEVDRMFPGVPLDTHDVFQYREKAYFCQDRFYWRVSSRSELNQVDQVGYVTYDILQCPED", "test": "In vitro MMP inhibition, Ki determination (fluorogenic substrate II)", "type": "biochemical", "details": "human recombinant enzyme; 4 μM substrate II; room temperature, 1 hr", "description": "(§1) Several hydroxamic acids and salts thereof were analyzed in in vitro assays to determine their ability to inhibit the MMP cleavage of peptide substrates. […] and IC50 constants were calculated from the assayed hydroxamic acid-MMP interactions.\n(§2) Human recombinant MMP-1, MMP-2, MMP-9, MMP-13, and MMP-14 were used in this assay. All enzymes were prepared in Assignee's laboratories following usual laboratory procedures. Protocols for the preparation and use of these enzymes are available in the scientific literature. See, e.g., Enzyme Nomenclature (Academic Press, San Diego, Calif., 1992) (and the citations therein). See also, Freije et al., “Molecular cloning and expression of collagenase-3, a novel human matrix metalloproteinase produced by breast carcinomas,” J Biol. Chem., 269(24), 16766-16773 (1994).\n(§3) The MMP-9 proenzyme was purified by gelatin Sepharose chromatography from spent media of MMP-9-transfected HT1080 cells provided by Dr. Howard Welgus of Washington University (St. Louis, Mo.).\n(§4) All MMPs were activated using 4-aminophenylmercuric acetate (“APMA”, Sigma Chemical, St. Louis, Mo.) or trypsin. MMP-9 also was activated using human recombinant MMP-3 (purified in Assignee's laboratory following standard cloning and purification techniques).\n(§5) Two fluorogenic, methoxycoumarin-containing polypeptide substrates were used in the MMP inhibition assays: [drawing 427] Here, “Dpa” is 3-(2,4-dinitrophenyl)-L-2,3-diaminopropionyl group, and “MCA” is 7-methoxycoumarin-4-yl acetyl. Substrate (I) was purchased from Baychem (Redwood City, Calif.), and substrate II was prepared Assignee's laboratory. Substrate I was used in the IC50 determination assays, while substrate II was used in the Ki determination assays. In the absence of MMP inhibitory activity, either substrate is cleaved at the Gly-Leu peptide bond. This cleavage separates the highly fluorogenic peptide from the 2,4-dinitrophenyl quencher, thus resulting in increase of fluorescent intensity.\n(§6) The stock solutions of the assayed hydroxamic acids (or salts thereof) were prepared in 1% dimethyl sulfoxide (DMSO). These stock solutions were diluted in Buffer A (100 mM Tris-HCl, 100 mM NaCl, 10 mM CaCl2, 0.05% polyoxyethylene 23 lauryl ether, pH 7.5) to obtain solutions with different hydroxamic acid concentrations, i.e., assay solutions with different concentrations of the assayed MMP inhibitory compound. The experiment controls contained the same amount of Buffer A/DMSO as the assayed sample, but contained no hydroxamic acid (or salt thereof).\n(§7) The assays from which the Ki determinations were made were performed as follows. The assayed hydroxamic acid samples were incubated in separate wells of untreated white polystyrene plates (Nunc Nalgene International, Rochester, N.Y.), and analyzed on a Tecan SpectraFlour Plus plate reader. The excitation wavelength was 330 nm, and the emission wavelength—420 nm. All samples (assayed hydroxamic acids and controls) were incubated in separate plate wells at room temperature for 1 hr in the presence of 4 μM of MMP substrate (II). In the absence of MMP inhibitory activity, substrate II was cleaved at the Gly-Leu bond resulting in an increase of relative fluorescence. Inhibition was observed as a reduced rate of this increase in relative fluorescence. The various hydroxamic acids were analyzed using a single low enzyme concentration with a single substrate concentration fixed at or below the Km. This protocol is a modification of method by Knight et al., FEBS Lett., 296(3), 263-266 (1992). Apparent inhibitory constants were determined by non-linear regression of reaction velocity as a function of inhibitor and enzyme concentration using Morrison's equation, as described by Kuzmic, Anal. Biochem. 286, 45-50 (2000). Modifications were made in the non-linear regression method to allow a common control reaction rate and effective enzyme concentration to be shared between all dose-response relationships on a given assay plate. […]", "units": {"Ki": "nM"}, "values": [{"smiles": "CCCCc1cnc(N2CCN(S(=O)(=O)C3(C(=O)NO)CCOCC3)CC2)cn1", "note": "[Example 1, 4-{[4-(5-butylpyrazin-2-yl)piperazin-1-yl]sulfonyl}-N-hydroxytetrahydro-2H-pyran-4-carboxamide Dihydrochloride]", "Ki": 0.696}, {"smiles": "O=C(NO)C1(S(=O)(=O)N2CCN(c3ccc(OCC(F)(F)F)cc3)CC2)CCOCC1", "note": "[Example 2, N-hydroxy-4-({4-[4-(2,2,2-trifluoroethoxy)phenyl]piperazin-1-yl}sulfonyl)tetrahydro-2H-pyran-4-carboxamide Hydrochloride]", "Ki": 1.28}, {"smiles": "CCOc1ccc(N2CCN(S(=O)(=O)C3(C(=O)NO)CCOCC3)CC2)cc1", "note": "[Example 3, 4-{[4-(4-ethoxyphenyl)piperazinyl]sulfonyl}perhydro-2H-pyran-4-carbohydroxamic Acid]", "Ki": 0.93}, {"smiles": "O=C(NO)C1(S(=O)(=O)N2CCN(c3ccc(OC(F)(F)C(F)F)cc3)CC2)CCOCC1", "note": "[Example 4, 4-({4-[4-(1,1,2,2-tetrafluoroethoxy)phenyl]piperazinyl}sulfonyl)perhydro-2H-pyran-4-carbohydroxamic Acid]", "Ki": 0.739}, {"smiles": "O=C(NO)C1(S(=O)(=O)N2CCN(c3ccc(OCCCC(F)(F)F)cc3)CC2)CCOCC1", "note": "[Example 7, N-hydroxy-4-({4-[4-(4,4,4-trifluorobutoxy)phenyl]piperazin-1-yl}sulfonyl)tetrahydro-2H-pyran-4-carboxamide Hydrochloride]", "Ki": 7.35}, {"smiles": "COc1ccc(-c2cnc(N3CCN(S(=O)(=O)C4(C(=O)NO)CCOCC4)CC3)nc2)cc1", "note": "[Example 8, N-hydroxy-4-({4-[5-(4-methoxyphenyl)pyrimidin-2-yl]piperazin-1-yl}sulfonyl)tetrahydro-2H-pyran-4-carboxamide Hydrochloride]", "Ki": 1.65}, {"smiles": "COCCN1CCC(C(=O)NO)(S(=O)(=O)N2CCN(c3ccc(OCCCC(F)(F)F)cc3)CC2)CC1", "note": "[Example 9, N-hydroxy-1-(2-methoxyethyl)-4-({4-[4-(4,4,4-trifluorobutoxy)phenyl]piperazin-1-yl}sulfonyl)piperidine-4-carboxamide Dihydrochloride]", "Ki": 2.76}, {"smiles": "O=C(NO)C1(S(=O)(=O)N2CCN(c3ccc(-c4ccccc4)c(F)c3)CC2)CCOCC1", "note": "[Example 12, 4-{[4-(2-fluoro-1,1′-biphenyl-4-yl)piperazin-1-yl]sulfonyl}-N-hydroxytetrahydro-2H-pyran-4-carboxamide Hydrochloride]", "Ki": 1}, {"smiles": "CCCCCc1ccc(N2CCN(S(=O)(=O)C3(C(=O)NO)CCN(CCOC)CC3)CC2)cc1F", "note": "[Example 13, 4-{[4-(3-fluoro-4-pentylphenyl)piperazin-1-yl]sulfonyl}-N-hydroxy-1-(2-methoxyethyl)piperidine-4-carboxamide Dihydrochloride]", "Ki": 0.712}, {"smiles": "COCCOc1ccc(N2CCN(S(=O)(=O)C3(C(=O)NO)CCOCC3)CC2)cc1", "note": "[Example 14, N-hydroxy-4-({4-[4-(2-methoxyethoxy)phenyl]piperazin-1-yl}sulfonyl)tetrahydro-2H-pyran-4-carboxamide Hydrochloride]", "Ki": 20}, {"smiles": "CCCCOc1ccc(C2CCN(S(=O)(=O)C3(C(=O)NO)CCN(CCOC)CC3)CC2)cc1", "note": "[Example 16, 4-{[4-(4-butoxyphenyl)piperidin-1-yl]sulfonyl}-N-hydroxy-1-(2-methoxyethyl)piperidine-4-carboxamide Hydrochloride]", "Ki": 0.47}, {"smiles": "O=C(NO)C1(S(=O)(=O)N2CCN(c3ccc(CCC(F)(F)C(F)(F)F)cc3)CC2)CCOCC1", "note": "[Example 17, N-hydroxy-4-({4-[4-(3,3,4,4,4-pentafluorobutyl)phenyl]piperazin-1-yl}sulfonyl)tetrahydro-2H-pyran-4-carboxamide Hydrochloride]", "Ki": 1.01}, {"smiles": "O=C(NO)C1(S(=O)(=O)N2CCC(c3ccc(CCC(F)(F)C(F)(F)F)cc3)CC2)CCOCC1", "note": "[Example 18, N-hydroxy-4-({4-[4-(3,3,4,4,4-pentafluorobutyl)phenyl]piperidin-1-yl}sulfonyl)tetrahydro-2H-pyran-4-carboxamide]", "Ki": 0.398}, {"smiles": "CCCCc1ccc(C2CCN(S(=O)(=O)C3(C(=O)NO)CCOCC3)CC2)s1", "note": "[Example 19, 4-{[4-(5-butylthien-2-yl)piperidin-1-yl]sulfonyl}-N-hydroxytetrahydro-2H-pyran-4-carboxamide]", "Ki": 0.5}, {"smiles": "COCCN1CCC(C(=O)NO)(S(=O)(=O)N2CCC(c3ccc(OCCCC(F)(F)F)cc3)CC2)CC1", "note": "[Example 20, N-hydroxy-1-(2-methoxyethyl)-4-({4-[4-(4,4,4-trifluorobutoxy)phenyl]piperidin-1-yl}sulfonyl)piperidine-4-carboxamide Hydrochloride]", "Ki": 3.86}, {"smiles": "CCCCCc1ccc(N2CCN(S(=O)(=O)C3(C(=O)NO)CCN(C(=O)C(F)(F)F)CC3)CC2)cc1", "note": "[Example 21, N-hydroxy-4-{[4-(4-pentylphenyl)piperazin-1-yl]sulfonyl}-1-(trifluoroacetyl)piperidine-4-carboxamide Hydrochloride]", "Ki": 8.18}, {"smiles": "CCCCCc1ccc(N2CCN(S(=O)(=O)C3(C(=O)NO)CCN(CC)CC3)CC2)cc1F", "note": "[Example 22, 1-ethyl-4-{[4-(3-fluoro-4-pentylphenyl)piperazin-1-yl]sulfonyl}-N-hydroxypiperidine-4-carboxamine Hydrochloride]", "Ki": 3.2}, {"smiles": "CCCCCc1ccc(N2CCN(S(=O)(=O)C3(C(=O)NO)CCOCC3)CC2)c(F)c1", "note": "[Example 23, 4-{[4-(2-fluoro-4-pentylphenyl)piperazin-1-yl]sulfonyl}-N-hydroxytetrahydro-2H-pyran-4-carboxamide Hydrochloride]", "Ki": 2.67}, {"smiles": "CCCCc1ccc(C2CCN(S(=O)(=O)C3(C(=O)NO)CCN(C4CC4)CC3)CC2)nc1", "note": "[Example 24, 4-{[4-(5-butylpyridin-2-yl)piperidin-1-yl]sulfonyl}-1-cyclopropyl-N-hydroxypiperidine-4-carboxamide Hydrochloride]", "Ki": 0.12}, {"smiles": "O=C(NO)C1(S(=O)(=O)N2CCC(c3ccc(OCC(F)(F)F)cc3)CC2)CCN(C2CC2)CC1", "note": "[Example 25, 1-cyclopropyl-N-hydroxy-4-({4-[4-(2,2,2-trifluoroethoxy)phenyl]piperidin-1-yl}sulfonyl)piperidine-4-carboxamide Hydrochloride]", "Ki": 6}, {"smiles": "CCCCCCCCC1CCN(S(=O)(=O)C2(C(=O)NO)CCOCC2)CC1", "note": "[Example 26, 4-(4-octyl-piperidine-1-sulfonyl)-tetrahydro-pyran-4-carboxylic Acid Hydroxyamide]", "Ki": 0.33}, {"smiles": "O=C(NO)C1(S(=O)(=O)N2CCC(c3cnc(OCC(F)(F)C(F)(F)F)cn3)CC2)CCOCC1", "note": "[Example 27]", "Ki": 0.54}]}, {"target": "T1, MMP-9", "test": "In vitro MMP inhibition, Ki determination (fluorogenic substrate II)", "type": "biochemical", "details": "value not in parenthesis", "description": "as §1, §2, §3, §4, §5, §6, §7", "units": {"Ki": "nM"}, "values": [{"smiles": "CCCCCc1cnc(N2CCN(S(=O)(=O)C3(C(=O)NO)CCOCC3)CC2)s1", "note": "[Example 56]", "Ki": 3.49}, {"smiles": "O=C(NO)C1(S(=O)(=O)N2CCN(c3ccc(-c4ccc(Cl)cc4)cn3)CC2)CCOCC1", "note": "[Example 60]", "Ki": 7.05}, {"smiles": "O=C(NO)C1(S(=O)(=O)N2CCN(c3ccc(COCC(F)(F)C(F)(F)C(F)(F)C(F)F)cc3)CC2)CCOCC1", "note": "[Example 68]", "Ki": 208}, {"smiles": "O=C(NO)C1(S(=O)(=O)N2CCN(c3ccc(COCC(F)(F)C(F)(F)C(F)(F)F)cc3)CC2)CCOCC1", "note": "[Example 69]", "Ki": 202}, {"smiles": "C=CCCOC(=O)N1CCC(C(=O)NO)(S(=O)(=O)N2CCN(c3ccc(OCCCC)cc3)CC2)CC1", "note": "[Example 101]", "Ki": 3.8}, {"smiles": "COCCN1CCC(C(=O)NO)(S(=O)(=O)N2CCN(c3ccc(OCCCC(F)(F)F)cc3F)CC2)CC1", "note": "[Example 102]", "Ki": 18.1}, {"smiles": "O=C(NO)C1(S(=O)(=O)N2CCN(c3ncc(Br)cn3)CC2)CCOCC1", "note": "[Example 103]", "Ki": 10.5}, {"smiles": "O=C(NO)C1(S(=O)(=O)N2CCN(c3ncc(Br)cn3)CC2)CCOCC1", "note": "[Example 104]", "Ki": 11.9}, {"smiles": "O=C(NO)C1(S(=O)(=O)N2CCN(c3ncccn3)CC2)CCOCC1", "note": "[Example 106]", "Ki": 235}]}]}
